Results on 1 compound are retold here after patent publication US20220153780A1, “SALT FORMS OF S-(N, N-DIETHYLCARBAMOYL)GLUTATHIONE” (Tonix Pharma Holdings Limited, priority 2019, published 2022).

The structures appear in SMILES notation.

Data set [1] has as its system nucleus accumbens (NAc) and prefrontal cortex (PFC). The following applies: intravenous administration, rats, Faiman et al., 2013; cited from earlier work.
A short description of data set [2]: Visual solubility of free carbamathione in water and common organic solvents. It is filed as physicochemical. The procedure: Initially, the solubility of free carbamathione was evaluated in water and in common organic solvents. The common organic solvents tested included dichloromethane (DCM), methanol, ethyl acetate, ethanol, acetonitrile, acetone, 2-propanol, and N,N-dimethylformamide.
For each solvent the solubility of carbamathione was assessed by weighing out 50 mg of carbamathione into a stoppered tube followed by the addition of 0.05 mL of the test solvent to the tube. The mixture underwent vigorous shaking for 1 minute, and was placed in a constant temperature device for 15 minutes at 25.0±0.5° C. If the carbamathione was not completely dissolved, vigorous shaking was repeated for 1 minute and then placed in a constant temperature device for an additional 15 minutes. If the carbamathione was not fully dissolved, additional solvent was added portion-wise until dissolution of carbamathione was observed. If complete dissolution was not observed, the solution was heated until the boiling point under stirring to verify the solubility at high temperature. The solvents were classified according to the visual solubility determined into the groups described in Table 6.

For data set [3], the system named is high alcohol-drinking-1 (HAD1) rats. Put plainly: 2-hour ethanol intake by adult male HAD1 rats after IP carbamathione. The data set is classed as in vivo. To be noted: IP 100, 200, 400 mg/kg, saline with 0.25% Tween 80 vehicle. As to the method:
The efficacy of carbamathione in reducing ethanol intake of rats was assessed. Adult male alcohol-preferring rats (P rats) and high alcohol-drinking-1 (HAD1) rats (˜75 days of age at the start) were used in this study. These rats underwent an 8-week acquisition/acclimation period of concurrent free-choice access to 15% and 30% ethanol. Animals were initiated with 24-hour access, which was titrated down to 2 hours per day for 5 days (Monday-Friday)/week access. Ethanol access began at the beginning of the dark cycle (10:00 h) in a room maintained on a reverse dark-light cycle (10:00 h to 22:00 h lights out).
After the acquisition period, the animals underwent three weeks of testing. Four doses were tested: 0, 100, 200, and 400 mg/kg/day. Sterile isotonic (0.9% normal) saline with 0.25% Tween® 80 was used as the vehicle for all doses. Injection solutions were prepared approximately 1 hour prior to each administration.
The carbamathione solution was maintained at −20° C. until mixing the solutions each day. Adding the carboxyl-associated compound helped dissolve the carbamathione solid, which was pulverized by mortar and pestle with 50 μl Tween® 80, resulting in a pH of 3.5. […] Doses were calculated at 3 ml/kg to allow for injection volume of 1.5 ml per 500 g rat. […]
Data were analyzed by Dose, by Test Day, and 2-way mixed ANOVAs on each rat line, followed by Dunnett t-test planned comparisons.

On to `CCN(CC)C(=O)SCC(NC(=O)CCC(N)C(=O)O)C(=O)NCC(=O)O` (stereo not shown) [carbamathione, S—(N,N-diethylcarbamoyl)glutathione], for which the GABA entry in data set [1] was “decreases”. The “dopamine (DA)” value in data set [1] is recorded as “increases”. Also, in data set [1], the “glutamate (Glu)” value is recorded as “biphasic effect”. In addition, the “Solubility at HT” value in data set [2] (2-Propanol, heated until the boiling point) is given as “No”; in data set [2] (Acetone, heated until the boiling point) it was “No”; in data set [2] (Acetonitrile, heated until the boiling point) it was “No”; in data set [2] (Dichloromethane, heated until the boiling point), “No”; in data set [2] (Ethanol, heated until the boiling point), “No”; in data set [2] (Ethyl Acetate, heated until the boiling point), “No”. Moreover, the “Solubility at HT” value is on record as “No” in data set [2] (Methanol, heated until the boiling point); “No” in data set [2] (N,N-Dimethylformamide, heated until the boiling point); “No” in data set [2] (Tetrahydrofuran, heated until the boiling point); “Dissolved” in data set [2] (Water, heated until the boiling point (100° C.)). Further, the solubility in water result in data set [2] (only at high temperature) was “sparingly soluble”. Further, the “solubility in all of the common organic solvents” value in data set [2] (visual solubility) is reported as “very slightly soluble”. The “effect on 2-hour ethanol intake” value in data set [3] is “no effect”.
